Structures are written as SMILES. Converted amounts (≈) assume the structure as drawn. Like-named read-outs stand apart in the source and are kept apart here. Where only a bound is given, the exact number is not on record here.

Experiment [1] deals with Staphylococcus aureus bacteria (ATCC 9604 SV). Description: IC50 determination, growth inhibition by turbidity at 550 nm. In kind it is cell-based. The settings on record: Staphylococcus aureus ATCC 9604 SV, turbidity at 550 nm after 3-5 h at 37° C. How it is done: Minimal inhibitory concentrations (MICs) for Staphylococcus aureus bacteria (ATCC 9604 SV) were determined by broth microdilution methodology following National Committee for Clinical Laboratory Standards. In the MIC determinations, the compounds were incorporated into Mueller-Hinton broth (Becton Dickinson Microbiology systems, Cockeyville, Md.) at a series of concentrations. After the test organism was grown overnight in TB broth, the broths were adjusted to the turbidity equivalent to 0.05 McFarland standard. The suspensions were diluted twenty-fold into the broth containing the compounds. […] In the IC50 determination, the method was modified to allow the rapid growth of the organisms. The inoculum suspensions were adjusted to 0.1 McFarland standard and then diluted two-fold into the wells containing TB broth and the compounds. After three to five hours incubation at 37° C., the turbidity was measured at 550 nm and inhibitory activity was defined as the concentration of antimicrobial agent that inhibits 50% growth of the organism in the microdilution wells.

The test system of experiment [2] is methicillin-resistant Staphylococcus aureus (ATCC 33591). The experiment in a line: In vivo mouse intraperitoneal infection, mortality and % survivors over 7 days. The settings on record: MRSA ATCC 33591 i.p., ICR mice; for In Vivo, single dose (% of mice rescued): single dose 1 h post inoculation; for In Vivo, double dose (% of mice rescued): 1 and 5 h post inoculation. In a few lines: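 Survival and mortality were scored for 7 days after i.p. challenge of 20 g male ICR mice (n=10) with an LD90-100 inoculum (2-3×10^7 CFU/mouse) of MRSA ATCC 33591 in 5% mucin. Treatment was subcutaneous in 1% cremophore EL/saline, either once at 1 h or twice at 1 h and 5 h.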

The test system of experiment [3] is Staphylococcus aureus bacteria (ATCC 9604 SV). The experiment in a line: Minimal inhibitory concentration (MIC), broth microdilution. The settings on record: 24 h at 37° C. The format is cell-based. In a few lines: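 MIC: broth microdilution per NCCLS in Mueller-Hinton broth; overnight culture adjusted to 0.05 McFarland and diluted twenty-fold into compound-containing broth. IC50: inoculum at 0.1 McFarland diluted two-fold into TB broth with compound, 3–5 h at 37° C. Turbidity at 550 nm; IC50 is the concentration giving 50% growth inhibition.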
Background: Broth dilution looks for growth in wells or tubes with falling amounts of substance.

[4] abbreviates: Staphylococcus aureus ATCC 9604 SV.
Where [5] appears, read: ATCC9604, Staphylococcus aureus ATCC 9604 SV, read-out: MIC.

A word on the IC50: it is the point on the concentration scale where inhibition reaches its midpoint. A low value points to greater potency. As usually defined, the MIC is the smallest concentration in the dilution series that meets the test's criterion for growth inhibition. In turn, `O=C(Nc1cc(C(F)(F)F)cc(C(F)(F)F)c1)Nc1cc(-c2cccs2)nn1-c1ccc(C(F)(F)F)cc1` [Compound 83] yielded an IC50 in experiment [1] of 71 nM. For the same molecule, the “In Vivo, single dose (% of mice rescued)” value is given as 0% @ 2 mg/kg in experiment [2] (2 mg/kg s.c.) and 25% @ 20 mg/kg in experiment [2] (20 mg/kg s.c.). Also, the MIC in experiment [3] (setting [4]) worked out at 0.847 µg/mL (≈ 1.5 µM).
Taken in the same sequence, the figures for `O=C(Nc1cc(Cl)cc(Cl)c1)Nc1cc(-c2cccs2)nn1-c1ccc(C(F)(F)F)cc1` [Compound 84] were 134 nM, 0% @ 2 mg/kg, 0% @ 20 mg/kg and 6.22 µg/mL (≈ 12.5 µM).
Turning to `O=C(Nc1cc(C(F)(F)F)cc(C(F)(F)F)c1)Nc1cc(-c2cccnc2)nn1-c1ccc(C(F)(F)F)cc1` [Compound 86], in experiment [1], inhibition was half-maximal at 205 nM (IC50). Moreover, the figures for the “In Vivo, single dose (% of mice rescued)” value in experiment [2] (2 mg/kg s.c.) and in experiment [2] (20 mg/kg s.c.) were 0% @ 2 mg/kg and 0% @ 20 mg/kg, respectively. In experiment [3] (setting [4]), this molecule had an MIC of 1.68 µg/mL (≈ 3 µM).
As to `O=C(Nc1cc(C(F)(F)F)cc(C(F)(F)F)c1)Nc1cc(-c2ccncc2)nn1-c1ccc(C(F)(F)F)cc1` [Compound 87], the IC50 in experiment [1] came to 214 nM. Also, the “In Vivo, single dose (% of mice rescued)” value in experiment [2] (2 mg/kg s.c.) worked out at 25% @ 2 mg/kg; in experiment [2] (20 mg/kg s.c.) it was 25% @ 20 mg/kg. Further, the “In Vivo, double dose (% of mice rescued)” value in experiment [2] (2 × 2 mg/kg s.c.) is 0% @ 2 × 2 mg/kg; in experiment [2] (2 × 20 mg/kg s.c.), 17% @ 2 × 20 mg/kg. In experiment [3] (setting [4]), this molecule returned an MIC of 1.68 µg/mL (≈ 3 µM).
In turn, `O=C(Nc1cc(C(F)(F)F)cc(C(F)(F)F)c1)Nc1cc(CN2CCOCC2)nn1-c1ccc(C(F)(F)F)cc1` [Compound 89] returned a half-inhibitory concentration (IC50) in experiment [1] of 216 nM. For the same molecule, the entries for the “In Vivo, single dose (% of mice rescued)” value in experiment [2] (2 mg/kg s.c.) and in experiment [2] (20 mg/kg s.c.) were 0% @ 2 mg/kg and 0% @ 20 mg/kg, respectively. In experiment [3] (setting [4]), this molecule showed an MIC above 29.1 µg/mL.
In experiment [1], `O=C(Nc1cc(Cl)cc(Cl)c1)Nc1cc(-c2ccccc2)nn1-c1ccc(Cl)cc1` [Compound 91] showed an IC50 of 148 nM. The “In Vivo, single dose (% of mice rescued)” value in experiment [2] (2 mg/kg s.c.) is listed as 0% @ 2 mg/kg; in experiment [2] (20 mg/kg s.c.), 0% @ 20 mg/kg. In addition, the MIC in experiment [3] (setting [4]) was above 22.9 µg/mL.
In turn, `O=C(Nc1cc(C(F)(F)F)cc(C(F)(F)F)c1)Nc1ccnn1-c1ccc(Br)cc1` [Compound 92, 1-(3,5-Bis-trifluoromethyl-phenyl)-3-[2-(4-bromo-phenyl)-2H-pyrazol-3-yl]-urea] had an IC50 in experiment [1] (ATCC9604) of 209 nM. The entries for the “In Vivo, single dose (% of mice rescued)” value in experiment [2] (2 mg/kg s.c.) and in experiment [2] (20 mg/kg s.c.) were 0% @ 2 mg/kg and 0% @ 20 mg/kg, respectively. The MIC in experiment [3] (setting [5]) is below 0.74 µg/mL.
With `O=C(Nc1cc(Cl)cc(Cl)c1)Nc1ccnn1-c1ccc(Br)cc1` [Compound 93], half-maximal inhibition in experiment [1] (IC50) was put at 138 nM. Besides, the “In Vivo, single dose (% of mice rescued)” value in experiment [2] (2 mg/kg s.c.) is on record as 0% @ 2 mg/kg; in experiment [2] (20 mg/kg s.c.), 25% @ 20 mg/kg. In addition, in experiment [3] (setting [4]), the minimal inhibitory concentration (MIC) was below 0.639 µg/mL.
Consider `CCOC(=O)c1cnn(-c2ccc(Br)cc2)c1NC(=O)Nc1cc(C(F)(F)F)cc(C(F)(F)F)c1` [Compound 94], for which, in experiment [1], the IC50 worked out at 261 nM. In addition, the “In Vivo, single dose (% of mice rescued)” value in experiment [2] (2 mg/kg s.c.) is 0% @ 2 mg/kg; in experiment [2] (20 mg/kg s.c.), 0% @ 20 mg/kg. The same molecule came in with a minimal inhibitory concentration (MIC) in experiment [3] (setting [4]) below 0.848 µg/mL.
In experiment [1] (ATCC9604), `Cc1cc(NC(=O)Nc2cc(C(F)(F)F)cc(C(F)(F)F)c2)n(-c2ccc(Br)cc2)n1` [Compound 95, 1-(3,5-Bis-trifluoromethyl-phenyl)-3-[2-(4-bromo-phenyl)-5-methyl-2H-pyrazol-3-yl]-urea] came in with an IC50 of 268 nM. For the same molecule, the “In Vivo, single dose (% of mice rescued)” value in experiment [2] (2 mg/kg s.c.) was 25% @ 2 mg/kg; in experiment [2] (20 mg/kg s.c.) it was 25% @ 20 mg/kg. The MIC in experiment [3] (setting [5]) is below 0.761 µg/mL.
In the case of `Cc1cc(NC(=O)Nc2cc(Cl)cc(Cl)c2)n(-c2ccc(Br)cc2)n1` [Compound 96], the IC50 in experiment [1] came out at 967 nM. Further, the entries for the “In Vivo, single dose (% of mice rescued)” value in experiment [2] (2 mg/kg s.c.) and in experiment [2] (20 mg/kg s.c.) were 0% @ 2 mg/kg and 25% @ 20 mg/kg, respectively. Further, the MIC in experiment [3] (setting [4]) is above 22.0 µg/mL.
The molecule `CCOC(=O)c1cc(NC(=O)Nc2cc(C(F)(F)F)cc(C(F)(F)F)c2)n(-c2ccc(Br)cc2)n1` [Compound 98] came in with an IC50 in experiment [1] of 3100 nM. Besides, the “In Vivo, double dose (% of mice rescued)” value was 0% @ 2 × 2 mg/kg in experiment [2] (2 × 2 mg/kg s.c.) and 33% @ 2 × 20 mg/kg in experiment [2] (2 × 20 mg/kg s.c.). The molecule also returned an MIC in experiment [3] (setting [4]) above 14.1 µg/mL.
`O=C(Nc1cc(C(F)(F)F)cc(C(F)(F)F)c1)Nc1cc(CO)nn1-c1ccc(Br)cc1` [Compound 99, 1-(3,5-Bis-trifluoromethyl-phenyl)-3-[2-(4-bromo-phenyl)-5-hydroxymethyl-2H-pyrazol-3-yl]-urea] yielded an IC50 in experiment [1] (ATCC9604) of 4240 nM. For the same molecule, the “In Vivo, double dose (% of mice rescued)” value in experiment [2] (2 × 2 mg/kg s.c.) was determined as 33% @ 2 × 2 mg/kg; in experiment [2] (2 × 20 mg/kg s.c.), 33% @ 2 × 20 mg/kg. In addition, the MIC in experiment [3] (setting [5]) was determined as 6.54 µg/mL (≈ 12.5 µM).
On to `CC(C)(C)c1cc(NC(=O)Nc2cc(Cl)cc(Cl)c2)n(-c2ccc(Br)cc2)n1` [Compound 100], for which the half-maximal inhibitory concentration (IC50) in experiment [1] was 132 nM. The “In Vivo, single dose (% of mice rescued)” value was found to be 0% @ 2 mg/kg in experiment [2] (2 mg/kg s.c.) and 0% @ 20 mg/kg in experiment [2] (20 mg/kg s.c.). Further, the MIC in experiment [3] (setting [4]) is below 0.723 µg/mL.
Take `CC(C)(C)c1cc(NC(=O)Nc2cc(C(F)(F)F)cc(C(F)(F)F)c2)n(-c2ccc(Br)cc2)n1` [Compound 101]: inhibition in experiment [1] was half-maximal at 143 nM (IC50). Also, the figures for the “In Vivo, single dose (% of mice rescued)” value in experiment [2] (2 mg/kg s.c.) and in experiment [2] (20 mg/kg s.c.) were 0% @ 2 mg/kg and 0% @ 20 mg/kg, respectively. The MIC in experiment [3] (setting [4]) was below 0.824 µg/mL.
With `COCCN(CCOC)Cc1cc(NC(=O)Nc2cc(Cl)cc(Cl)c2)n(-c2ccc(Br)cc2)n1` [Compound 102], the IC50 in experiment [1] was determined as 3520 nM. The “In Vivo, single dose (% of mice rescued)” value in experiment [2] (2 mg/kg s.c.) is recorded as 0% @ 2 mg/kg; in experiment [2] (20 mg/kg s.c.), 25% @ 20 mg/kg. For the same molecule, in experiment [3] (setting [4]), the MIC came out at 28.6 µg/mL (≈ 50.1 µM).
For the molecule `COCCN(CCOC)Cc1cc(NC(=O)Nc2cc(C(F)(F)F)cc(C(F)(F)F)c2)n(-c2ccc(Br)cc2)n1` [Compound 103], the IC50 in experiment [1] is 1560 nM. For the same molecule, the “In Vivo, single dose (% of mice rescued)” value is 25% @ 2 mg/kg in experiment [2] (2 mg/kg s.c.) and 25% @ 20 mg/kg in experiment [2] (20 mg/kg s.c.). Further, the “In Vivo, double dose (% of mice rescued)” value in experiment [2] (2 × 2 mg/kg s.c.) amounted to 0% @ 2 × 2 mg/kg; in experiment [2] (2 × 20 mg/kg s.c.) it was 33% @ 2 × 20 mg/kg. Besides, the minimal inhibitory concentration (MIC) in experiment [3] (setting [4]) worked out at 16.0 µg/mL (≈ 25.1 µM).
Turning to `O=C(Nc1cc(C(F)(F)F)cc(C(F)(F)F)c1)Nc1cc(CN(CCO)CCO)nn1-c1ccc(Br)cc1` [Compound 104], the IC50 in experiment [1] is 6800 nM. For the same molecule, the “In Vivo, double dose (% of mice rescued)” value is 17% @ 2 × 2 mg/kg in experiment [2] (2 × 2 mg/kg s.c.) and 17% @ 2 × 20 mg/kg in experiment [2] (2 × 20 mg/kg s.c.). In experiment [3] (setting [4]), this molecule had an MIC of 15.3 µg/mL (≈ 25.1 µM).
In experiment [1], `O=C(Nc1cc(Cl)cc(Cl)c1)Nc1cc(-c2ccccc2)nn1-c1ccc(Br)cc1` [Compound 107] returned an IC50 of 121 nM. In addition, the “In Vivo, single dose (% of mice rescued)” value in experiment [2] (2 mg/kg s.c.) is 25% @ 2 mg/kg; in experiment [2] (20 mg/kg s.c.), 12.5% @ 20 mg/kg; in experiment [2] (40 mg/kg s.c.) it was 10% @ 40 mg/kg; in experiment [2] (80 mg/kg s.c.) it was 10% @ 80 mg/kg; in experiment [2] (160 mg/kg s.c.), 5% @ 160 mg/kg. The “In Vivo, double dose (% of mice rescued)” value in experiment [2] (2 × 2 mg/kg s.c.) is reported as 0% @ 2 × 2 mg/kg; in experiment [2] (2 × 20 mg/kg s.c.), 17% @ 2 × 20 mg/kg. The molecule further had an MIC in experiment [3] (setting [4]) of 6.28 µg/mL (≈ 12.5 µM).

The values above are taken from US6410533B1, “Antibacterial compounds” (Genzyme Corporation, priority 2000, dated 2002).
